Experimental findings from patent publication US20260285857A1, “BICYCLIC AND HETEROCYCLIC AMIDE COMPOUNDS” (priority 2024, published 2026) are described below.

The assay relates to immunoglobulin light chain protein WIL-FL T46L. Briefly: Differential scanning fluorimetry (thermal shift) assay. The format is binding. Conditions: Table A; temperature shift [Tm]compound-[Tm]vehicle; recombinant WIL-FL T46L. For orientation: In DSF a fluorescence change marks the thermal transition of the protein.
Take `Cc1cc(N2CC[C@](C)(c3ccccc3)C2)cn2nc(C(=O)NC3CC(N4C[C@@H](O)[C@@H](O)C4)C3)nc12` (stereo partly drawn) [Compound 361]: the DSF entry is listed as “***** (>2.5° C.=*****)”.
For the compound `Cc1cc(N2CC[C@](C)(c3ccccc3)C2)cn2nc(C(=O)NC3CC(N4C[C@H](O)[C@@H](O)C4)C3)nc12` (stereo partly drawn) [Compound 362], the DSF entry is “***** (>2.5° C.=*****)”.
Under `Cc1cc(N2CC[C@](C)(c3ccccc3)C2)cn2nc(C(=O)NC3CC4(C3)CC(N3C[C@H](F)[C@@H](F)C3)C4)nc12` (stereo partly drawn) [Compound 363] stands “***** (>2.5° C.=*****)”; under `Cc1cc(N2CC[C@](C)(c3ccccc3)C2)cn2nc(C(=O)NC3CC4(C3)CC(N3CC5C(C3)C5C(=O)O)C4)nc12` (stereo partly drawn) [Compound 364], “***** (>2.5° C.=*****)”.
Turning to `Cc1cc(N2CC[C@](C)(c3ccccc3)C2)cn2nc(C(=O)NC3CCC(N4CC5C(C4)C5C(=O)O)C3)nc12` (stereo partly drawn) [Compound 365], the DSF entry was “***** (>2.5° C.=*****)”.
Under `Cc1cc(N2CC[C@](C)(c3ccccc3)C2)cn2nc(C(=O)N3CCC(N4CC5C(C4)C5C(=O)O)CC3)nc12` (stereo partly drawn) [Compound 366] stands “***** (>2.5° C.=*****)”; under `Cc1cc(N2CC[C@](C)(c3ccccc3)C2)cn2nc(C(=O)NC3CC4(C3)CC(N3CC5C(C3)C5C(N)=O)C4)nc12` (stereo partly drawn) [Compound 367], “***** (>2.5° C.=*****)”.
Under `Cc1cc(N2CC[C@](C)(c3ccccc3)C2)cn2nc(C(=O)NC3CC4(C3)CC(N3CC5C(C3)C5c3nn[nH]n3)C4)nc12` (stereo partly drawn) [Compound 368] stands “***** (>2.5° C.=*****)”.
As to `Cc1cc(N2CC[C@](C)(c3ccccc3)C2)cn2nc(C(=O)NC3CC4(C3)CC(N3C[C@@H](O)[C@@H](O)C3)C4)nc12` (stereo partly drawn) [Compound 369], the DSF entry is “***** (>2.5° C.=*****)”.
Turning to `Cc1cc(N2CC[C@](C)(c3ccccc3)C2)cn2nc(C(=O)N3CCC4(CC3)CC(N3CC5C(C3)C5C(=O)O)CO4)nc12` (stereo partly drawn) [Compound 370], the DSF result is reported as “***** (>2.5° C.=*****)”.
Under `Cc1cc(N2CC[C@](C)(c3ccccc3)C2)cn2nc(C(=O)NC3CC4(C3)CN(C3CC(C)(C(=O)O)C3)C4)nc12` (stereo partly drawn) [Compound 371] stands “***** (>2.5° C.=*****)”; under `COC(=O)C1C2CN(C3CCC34CC(NC(=O)c3nc5c(C)cc(N6CC[C@](C)(c7ccccc7)C6)cn5n3)C4)CC21` (stereo partly drawn) [Compound 372], “***** (>2.5° C.=*****)”.
As for `COC(=O)C1CCN(C2CCC23CC(NC(=O)c2nc4c(C)cc(N5CC[C@](C)(c6ccccc6)C5)cn4n2)C3)CC1` (stereo partly drawn) [Compound 373], the entry is “***** (>2.5° C.=*****)”; as for `Cc1cc(N2CC[C@](C)(c3ccccc3)C2)cn2nc(C(=O)NC3CC4(CCC4N4CCC(C(=O)O)CC4)C3)nc12` (stereo partly drawn) [Compound 374], “***** (>2.5° C.=*****)”.
Consider `Cc1cc(N2CC[C@](C)(c3ccccc3)C2)cn2nc(C(=O)N3CCC4(C3)OCC4N3CC4C(C3)C4C(=O)O)nc12` (stereo partly drawn) [Compound 375], for which the DSF result is given as “***** (>2.5° C.=*****)”.
Consider `Cc1cc(N2CC[C@](C)(c3ccccc3)C2)cn2nc(C(=O)N3CC[C@@]4(CCN(C5CCC(C(=O)O)CC5)C4)C3)nc12` (stereo partly drawn) [Compound 376], for which the DSF entry was “***** (>2.5° C.=*****)”.
As for `Cc1cc(N2CC[C@](C)(c3ccccc3)C2)cn2nc(C(=O)N3CCC4(CCN(C5CCC(C(=O)O)CC5)C4)C3)nc12` (stereo partly drawn) [Compound 377], the entry is “***** (>2.5° C.=*****)”.
With `CCOC(=O)C1C2CN(C3CC4(CC(NC(=O)c5nc6c(C)cc(N7CC[C@](C)(c8ccccc8)C7)cn6n5)C4)C3)CC21` (stereo partly drawn) [Compound 378], the DSF result was “***** (>2.5° C.=*****)”.
Regarding `Cc1cc(N2CC[C@](C)(c3ccccc3)C2)cn2nc(C(=O)NC3CC4(C3)CC(N3CC5C(C3)C5C(=O)O)C4)nc12` (stereo partly drawn) [Compound 379], the DSF result was “***** (>2.5° C.=*****)”.
Turning to `Cc1cc(N2CC[C@](C)(c3ccccc3)C2)cn2nc(C(=O)NC3CC4(C3)CC(N3CCCC(C(=O)O)C3)C4)nc12` (stereo partly drawn) [Compound 380], the DSF result was “***** (>2.5° C.=*****)”.
As to `Cc1cc(N2CC[C@](C)(c3ccccc3)C2)cn2nc(C34CC(O)(CO3)C4)nc12` [Compound 381], the DSF entry is recorded as “***** (>2.5° C.=*****)”.
Consider `Cc1cc(N2CC[C@@](C)(c3cccc(F)c3)C2)cn2nc(C(=O)NCC(C)(C)O)nc12` [Compound 382], for which the DSF entry was “***** (>2.5° C.=*****)”.
As for `Cc1cc(N2CCC(C)(c3cccc(F)c3)C2)cn2nc(C(=O)NC3CCOC3)nc12` (stereo not drawn) [Compound 383], the entry is “***** (>2.5° C.=*****)”; as for `Cc1cc(N2CC[C@](C)(c3cccc(F)c3)C2)cn2nc(C(=O)NC3CC4(C3)CC(N3CC5C(C3)C5C(=O)O)C4)nc12` (stereo partly drawn) [Compound 384], “***** (>2.5° C.=*****)”; as for `Cc1cc(N2CC[C@](C)(c3cccc(F)c3)C2)cn2nc(C(=O)N3CCC(C)(O)C3)nc12` (stereo partly drawn) [Compound 385], “***** (>2.5° C.=*****)”.
Under `Cc1cc(N2CCC(C)(c3ccccc3)C2=O)cn2nc(C(=O)N3CC[C@@]4(CCN(c5cccc(C(=O)O)n5)C4)C3)nc12` (stereo partly drawn) [Compound 386] stands “** (>0.5-1 °C =**)”; under `Cc1cc(N2CC(C)(c3ccccc3)CC2=O)cn2nc(C(=O)N3CC[C@@]4(CCN(c5cccc(C(=O)O)n5)C4)C3)nc12` (stereo partly drawn) [Compound 387], “** (>0.5-1 °C =**)”.
Under `Cc1cc(N2CCC(C)(c3ccc(F)cc3F)C2)cn2nc(C(=O)N3C[C@@H]4CN(c5cccc(C(=O)O)n5)C[C@@H]4C3)nc12` (stereo partly drawn) [Compound 388] stands “**** (>1.5-2.5° C.=****)”.
For the compound `Cc1cc(N2CCC(C)(c3c(F)cccc3F)C2)cn2nc(C(=O)N3C[C@@H]4CN(c5cccc(C(=O)O)n5)C[C@@H]4C3)nc12` (stereo partly drawn) [Compound 389], the DSF entry is given as “***** (>2.5° C.=*****)”.
As for `CCC1(c2ccccc2)CN(c2cc(C)c3nc(C(=O)NC4CCN(c5cccc(C(=O)O)n5)CC4)nn3c2)C1` [Compound 390], the entry is “***** (>2.5° C.=*****)”; as for `CCC1(c2ccccc2)CN(c2cc(CO)c3nc(C(=O)NC)nn3c2)C1` [Compound 391], “***** (>2.5° C.=*****)”.
Under `CCC1(c2ccccc2)CN(c2cc(CO)c3nc(C(=O)NC4CCN(c5cccc(C(=O)O)n5)CC4)nn3c2)C1` [Compound 392] stands “***** (>2.5° C.=*****)”.
In the case of `CCC1(c2ccccc2)CN(c2cc(C)c3nc(C(=O)N4CC5CN(c6cccc(C(=O)O)n6)CC5C4)nn3c2)C1` (stereo not drawn) [Compound 393], the DSF result is “***** (>2.5° C.=*****)”.
Take `CCC1(c2ccccc2)CN(c2cc(C)c3nc(C(=O)N4CCC5(CCN(c6cccc(C(=O)O)n6)C5)C4)nn3c2)C1` (stereo not drawn) [Compound 394]: the DSF entry is listed as “***** (>2.5° C.=*****)”.
As for `CCC1(c2ccccc2)CN(c2cc(C)c3nc(C(=O)NC4CCN(c5ccnc(C(=O)O)c5)CC4)nn3c2)C1` [Compound 395], the entry is “***** (>2.5° C.=*****)”; as for `CCC1(c2ccc(C)cc2)CN(c2cc(C)c3nc(C(=O)N4C[C@@H]5CN(c6cccc(C(=O)O)n6)C[C@@H]5C4)nn3c2)C1` [Compound 396], “***** (>2.5° C.=*****)”; as for `CCC1(c2cccc(C)c2)CN(c2cc(C)c3nc(C(=O)N4C[C@@H]5CN(c6cccc(C(=O)O)n6)C[C@@H]5C4)nn3c2)C1` [Compound 397], “***** (>2.5° C.=*****)”.
As for `Cc1cc(N2CC(C)(c3ccccc3)C2)cn2nc(C(=O)N3CC[C@@]4(CCN(c5cccc(C(=O)O)n5)C4)C3)nc12` [Compound 398], the entry is “***** (>2.5° C.=*****)”; as for `Cc1cc(N2CC(C)(c3ccccc3)C2)cn2nc(C(=O)N3C[C@@H]4CN(c5cccc(C(=O)O)n5)C[C@@H]4C3)nc12` [Compound 399], “***** (>2.5° C.=*****)”.
On to `Cc1cnc(C2(C)CCN(c3cc(C)c4nc(C(=O)N5CC6CN(c7cccc(C(=O)O)n7)CC6C5)nn4c3)C2)nc1` (stereo not drawn) [Compound 400], for which the DSF entry is “** (>0.5-1 °C =**)”.
Under `Cc1cc(N2CCC(C)(c3nn[nH]n3)C2)cn2nc(C(=O)N3C[C@@H]4CN(c5cccc(C(=O)O)n5)C[C@@H]4C3)nc12` (stereo partly drawn) [Compound 401, 6-[5-[8-methyl-6-[3-methyl-3-(2H-tetrazol-5-yl)pyrrolidin-1-yl]-[1,2,4]triazolo[1,5-a]pyridine-2-carbonyl]-1,3,3a, 4,6,6a-hexahydropyrrolo[3,4-c]pyrrol-2-yl]pyridine-2-carboxylic acid] stands “* (0-0.5° C.=*)”; under `COC(=O)c1cc(-n2nnc3c2CCN(C(=O)c2nc4c(C)cc(N5CC[C@](C)(c6ccccc6)C5)cn4n2)C3)ccn1` [Compound 402], “***** (>2.5° C.=*****)”; under `COC(=O)c1cccc(-c2nc3n(n2)CCN(C(=O)c2nc4c(C)cc(N5CC[C@](C)(c6ccccc6)C5)cn4n2)C3)n1` [Compound 403], “***** (>2.5° C.=*****)”.
For the compound `Cc1cc(N2CC[C@](C)(c3ccccc3)C2)cn2nc(C(=O)N3CCn4nc(-c5cccc(C(=O)O)n5)nc4C3)nc12` [Compound 404], the DSF result was “***** (>2.5° C.=*****)”.
With `Cc1cc(N2CC[C@](C)(c3ccccc3)C2)cn2nc(C(=O)N3CCn4nc(-c5cc(C(=O)O)ccn5)nc4C3)nc12` [Compound 405], the DSF entry is on record as “***** (>2.5° C.=*****)”.
As for `COC(=O)c1cccc(-c2nnc3n2CCN(C(=O)c2nc4c(C)cc(N5CC[C@](C)(c6ccccc6)C5)cn4n2)C3)n1` [Compound 406], the entry is “***** (>2.5° C.=*****)”.
As for `Cc1cc(N2CC[C@](C)(c3ccccc3)C2)cn2nc(C(=O)N3CCn4c(nnc4-c4ccnc(C(=O)O)c4)C3)nc12` [Compound 407], the entry is “***** (>2.5° C.=*****)”; as for `Cc1cc(N2CC[C@](C)(c3ccccc3)C2)cn2nc(C(=O)N3CCn4c(nnc4-c4cccc(C(=O)O)n4)C3)nc12` [Compound 408], “***** (>2.5° C.=*****)”.
As for `COc1cccc([C@@]2(C)CCN(c3cc(C)c4nc(C(=O)N5CC[C@@]6(CCN(c7cccc(C(=O)O)n7)C6)C5)nn4c3)C2)c1` [Compound 409], the entry is “***** (>2.5° C.=*****)”; as for `Cc1cc(N2CCC(C)(c3ccccc3O)C2)cn2nc(C(=O)N3CC[C@@]4(CCN(c5cccc(C(=O)O)n5)C4)C3)nc12` (stereo partly drawn) [Compound 410], “*** (>1-1.5° C.=***)”.
`COc1ccc([C@@]2(C)CCN(c3cc(C)c4nc(C(=O)N5CC[C@@]6(CCN(c7cccc(C(=O)O)n7)C6)C5)nn4c3)C2)cc1` [Compound 411]: the DSF result was “***** (>2.5° C.=*****)”.
